According to ChEMBL document CHEMBL5346892, “Design and synthesis of benzochromene derivatives as AcrB inhibitors for the reversal of bacterial multidrug resistance” (Eur J Med Chem, 2023):
Active and inactive are the calls of the source. No cut-off for these calls is given here.

Experiments:
[1] = system: Escherichia coli; test: Synergistic antibacterial activity against wild type Escherichia coli BW25113 assessed as erythromycin MIC at 8 microg/ml incubated for 18 hrs by broth dilution assay; type: functional; details: dose 8 µg/ml
[2] = system: Escherichia coli; test: Synergistic antibacterial activity against wild type Escherichia coli BW25113 assessed as erythromycin MIC at 16 microg/ml incubated for 18 hrs by broth dilution assay; type: functional; details: dose 16 µg/ml
[3] = system: Escherichia coli; test: Synergistic antibacterial activity against wild type Escherichia coli BW25113 assessed as erythromycin MIC at 32 microg/ml incubated for 18 hrs by broth dilution assay; type: functional; details: dose 32 µg/ml
[4] = system: Escherichia coli; test: Synergistic antibacterial activity against wild type Escherichia coli BW25113 assessed as erythromycin MIC at 64 microg/ml incubated for 18 hrs by broth dilution assay; type: functional; details: dose 64 µg/ml
[5] = system: Escherichia coli; test: Synergistic antibacterial activity against wild type Escherichia coli BW25113 assessed as erythromycin MIC at 128 microg/ml incubated for 18 hrs by broth dilution assay; type: functional; details: dose 128 µg/ml
[6] = system: Escherichia coli; test: Synergistic antibacterial activity against wild type Escherichia coli BW25113 assessed as levofloxacin MIC at 8 microg/ml incubated for 18 hrs by broth dilution assay; type: functional; details: dose 8 µg/ml
[7] = system: Escherichia coli; test: Synergistic antibacterial activity against wild type Escherichia coli BW25113 assessed as levofloxacin MIC at 16 microg/ml incubated for 18 hrs by broth dilution assay; type: functional; details: dose 16 µg/ml
[8] = system: Escherichia coli; test: Synergistic antibacterial activity against wild type Escherichia coli BW25113 assessed as levofloxacin MIC at 32 microg/ml incubated for 18 hrs by broth dilution assay; type: functional; details: dose 32 µg/ml
[9] = system: Escherichia coli; test: Synergistic antibacterial activity against wild type Escherichia coli BW25113 assessed as levofloxacin MIC at 64 microg/ml incubated for 18 hrs by broth dilution assay; type: functional; details: dose 64 µg/ml
[10] = system: Escherichia coli; test: Synergistic antibacterial activity against wild type Escherichia coli BW25113 assessed as levofloxacin MIC at 128 microg/ml incubated for 18 hrs by broth dilution assay; type: functional; details: dose 128 µg/ml
[11] = system: Escherichia coli; test: Synergistic antibacterial activity against wild type Escherichia coli BW25113 assessed as minocycline MIC at 8 microg/ml incubated for 18 hrs by broth dilution assay; type: functional; details: dose 8 µg/ml
[12] = system: Escherichia coli; test: Synergistic antibacterial activity against wild type Escherichia coli BW25113 assessed as minocycline MIC at 16 microg/ml incubated for 18 hrs by broth dilution assay; type: functional; details: dose 16 µg/ml
[13] = system: Escherichia coli; test: Synergistic antibacterial activity against wild type Escherichia coli BW25113 assessed as minocycline MIC at 32 microg/ml incubated for 18 hrs by broth dilution assay; type: functional; details: dose 32 µg/ml
[14] = system: Escherichia coli; test: Synergistic antibacterial activity against wild type Escherichia coli BW25113 assessed as minocycline MIC at 128 microg/ml incubated for 18 hrs by broth dilution assay; type: functional; details: dose 128 µg/ml
[15] = system: Escherichia coli; test: Synergistic antibacterial activity against wild type Escherichia coli BW25113 assessed as erythromycin MIC at 8 microg/ml incubated for 18 hrs in presence of colistin by broth dilution assay; type: functional; details: dose 8 µg/ml
[16] = system: Escherichia coli; test: Synergistic antibacterial activity against wild type Escherichia coli BW25113 assessed as levofloxacin MIC at 8 microg/ml incubated for 18 hrs in presence of colistin by broth dilution assay; type: functional; details: dose 8 µg/ml
[17] = system: Escherichia coli; test: Synergistic antibacterial activity against wild type Escherichia coli BW25113 assessed as levofloxacin MIC at 32 microg/ml incubated for 18 hrs in presence of colistin by broth dilution assay; type: functional; details: dose 32 µg/ml
[18] = system: Escherichia coli; test: Synergistic antibacterial activity against wild type Escherichia coli BW25113 assessed as levofloxacin MIC at 64 microg/ml incubated for 18 hrs in presence of colistin by broth dilution assay; type: functional; details: dose 64 µg/ml
[19] = system: Escherichia coli; test: Synergistic antibacterial activity against wild type Escherichia coli BW25113 assessed as minocycline MIC at 8 microg/ml incubated for 18 hrs in presence of colistin by broth dilution assay; type: functional; details: dose 8 µg/ml
[20] = system: Cell membrane; test: Induction of inner membrane permeabilization in Escherichia coli BW25113 assessed as increase in fluorescence intensity at 64 microg/ml incubated for 10 mins by DiOC2 dye based fluorimeter analysis; type: subcellular; details: dose 64.0 µg/ml
[21] = Hemolytic activity in mouse RBC assessed as hemolysis at 4 to 256 microg/ml incubated for 1 hr by microplate reader analysis; type: toxicity, cell-based, Erythrocyte; details: mouse red blood cells (erythrocytes), at 4 to 256 µg/mL, dose 4-256 µg/ml, read-out: Activity
[22] = system: Escherichia coli; test: Synergistic antibacterial activity against wild type Escherichia coli BW25113 assessed as erythromycin MIC at 16 microg/ml incubated for 18 hrs in presence of colistin by broth dilution assay; type: functional; details: dose 16 µg/ml
[23] = system: Escherichia coli; test: Synergistic antibacterial activity against wild type Escherichia coli BW25113 assessed as erythromycin MIC at 32 microg/ml incubated for 18 hrs in presence of colistin by broth dilution assay; type: functional; details: dose 32 µg/ml
[24] = system: Escherichia coli; test: Synergistic antibacterial activity against wild type Escherichia coli BW25113 assessed as erythromycin MIC at 64 microg/ml incubated for 18 hrs in presence of colistin by broth dilution assay; type: functional; details: dose 64 µg/ml
[25] = system: Escherichia coli; test: Synergistic antibacterial activity against wild type Escherichia coli BW25113 assessed as levofloxacin MIC at 16 microg/ml incubated for 18 hrs in presence of colistin by broth dilution assay; type: functional; details: dose 16 µg/ml
[26] = system: Escherichia coli; test: Synergistic antibacterial activity against wild type Escherichia coli BW25113 assessed as minocycline MIC at 16 microg/ml incubated for 18 hrs in presence of colistin by broth dilution assay; type: functional; details: dose 16 µg/ml
[27] = system: Escherichia coli; test: Synergistic antibacterial activity against wild type Escherichia coli BW25113 assessed as minocycline MIC at 32 microg/ml incubated for 18 hrs in presence of colistin by broth dilution assay; type: functional; details: dose 32 µg/ml
[28] = system: Escherichia coli; test: Synergistic antibacterial activity against wild type Escherichia coli BW25113 assessed as minocycline MIC at 64 microg/ml incubated for 18 hrs in presence of colistin by broth dilution assay; type: functional; details: dose 64 µg/ml

Structure (SMILES): CC1(C)CCc2c(C(=O)N3CCOCC3)cc3c(OCCN4CCN(c5ccccc5)CC4)cccc3c2O1
- MIC [1]: 32 µg/mL
- MIC [2]: 32 µg/mL
- MIC [3]: 32 µg/mL
- MIC [4]: 32 µg/mL
- MIC [5]: 16 µg/mL
- MIC [6]: 0.032 µg/mL
- MIC [7]: 0.016 µg/mL
- MIC [8]: 0.016 µg/mL
- MIC [9]: 0.016 µg/mL
- MIC [10]: 0.016 µg/mL
- MIC [11]: 2 µg/mL
- MIC [12]: 2 µg/mL
- MIC [13]: 2 µg/mL
- MIC [14]: 1 µg/mL
- MIC [15]: 4 µg/mL
- MIC [16]: 0.032 µg/mL
- MIC [17]: 0.032 µg/mL
- MIC [18]: 0.032 µg/mL
- MIC [19]: 0.5 µg/mL
- Activity [20]: inactive
- hemolysis at 1 h [21]: < 5%

Structure (SMILES): COc1ccc(OCCCOc2cccc3c4c(c(C(=O)N5CCOCC5)cc23)CCC(C)(C)O4)cc1
- MIC [1]: 32 µg/mL
- MIC [2]: 32 µg/mL
- MIC [3]: 32 µg/mL
- MIC [4]: 16 µg/mL
- MIC [5]: 8 µg/mL
- MIC [6]: 0.032 µg/mL
- MIC [7]: 0.032 µg/mL
- MIC [8]: 0.032 µg/mL
- MIC [9]: 0.032 µg/mL
- MIC [10]: 0.032 µg/mL
- MIC [11]: 2 µg/mL
- MIC [12]: 2 µg/mL
- MIC [13]: 2 µg/mL
- MIC [14]: 1 µg/mL
- MIC [15]: 16 µg/mL
- MIC [22]: 16 µg/mL
- MIC [23]: 16 µg/mL
- MIC [24]: 16 µg/mL
- MIC [16]: 0.016 µg/mL
- MIC [25]: 0.016 µg/mL
- MIC [17]: 0.032 µg/mL
- MIC [18]: 0.032 µg/mL
- MIC [19]: 0.5 µg/mL
- MIC [26]: 0.5 µg/mL
- MIC [27]: 0.5 µg/mL
- MIC [28]: 0.25 µg/mL
- Activity [20]: inactive
- hemolysis at 1 h [21]: < 5%

Structure (SMILES): CC1(C)CCc2c(C(=O)N3CCOCC3)cc3c(OCCCOc4cccc(C(=O)O)c4)cccc3c2O1
- MIC [1]: 32 µg/mL
- MIC [2]: 32 µg/mL
- MIC [3]: 32 µg/mL
- MIC [4]: 16 µg/mL
- MIC [5]: 16 µg/mL
- MIC [6]: 0.016 µg/mL
- MIC [7]: 0.016 µg/mL
- MIC [8]: 0.016 µg/mL
- MIC [9]: 0.016 µg/mL
- MIC [10]: 0.016 µg/mL
- MIC [12]: 2 µg/mL
- MIC [13]: 1 µg/mL
- MIC [14]: 0.5 µg/mL
- MIC [15]: 8 µg/mL
- MIC [22]: 4 µg/mL
- MIC [23]: 4 µg/mL
- MIC [24]: 4 µg/mL
- MIC [16]: 0.016 µg/mL
- MIC [25]: 0.016 µg/mL
- MIC [17]: 0.016 µg/mL
- MIC [18]: 0.008 µg/mL
- MIC [19]: 0.5 µg/mL
- MIC [26]: 0.5 µg/mL
- MIC [27]: 0.5 µg/mL
- MIC [28]: 0.5 µg/mL
- hemolysis at 1 h [21]: < 5%

Structure (SMILES): CC1(C)CCc2c(C(=O)N3CCOCC3)cc3c(OCCSc4ccc([N+](=O)[O-])cc4)cccc3c2O1
- MIC [1]: 16 µg/mL
- MIC [2]: 16 µg/mL
- MIC [3]: 16 µg/mL
- MIC [4]: 16 µg/mL
- MIC [5]: 16 µg/mL
- MIC [6]: 0.016 µg/mL
- MIC [7]: 0.032 µg/mL
- MIC [8]: 0.016 µg/mL
- MIC [9]: 0.016 µg/mL
- MIC [10]: 0.016 µg/mL
- MIC [11]: 2 µg/mL
- MIC [12]: 2 µg/mL
- MIC [13]: 2 µg/mL
- MIC [14]: 2 µg/mL
- MIC [15]: 8 µg/mL
- MIC [22]: 8 µg/mL
- MIC [23]: 4 µg/mL
- MIC [24]: 4 µg/mL
- MIC [16]: 0.032 µg/mL
- MIC [25]: 0.032 µg/mL
- MIC [17]: 0.032 µg/mL
- MIC [18]: 0.032 µg/mL
- MIC [19]: 1 µg/mL
- MIC [26]: 1 µg/mL
- MIC [27]: 1 µg/mL
- MIC [28]: 0.5 µg/mL
- Activity [20]: inactive
- hemolysis at 1 h [21]: < 5%
